Experimental data published in patent publication US20260315653A1, “ANTICOAGULANT COMPOSITIONS COMPRISING ANTI-PLATELET AND ANTI-INFLAMMATORY DRUGS AND METHODS AND DEVICES FOR THEIR USE” (Elixir Medical Corporation, priority 2023, published 2026).
Several values for one entry are separate records, joined by “and”; a condition that tells them apart may be missing. Equal entries are not always repeated.

Columns and labels:
[1] = test system: Human Aortic SMC (HAoSMC); assay: HAoSMC cell proliferation assay (CellTiter Aqueous, 72 hours); type: cell-based
Protocol: Cell proliferation assay was done in 96-well format. Low passage cells were trypsinized and seeded in 96 well plates at a density of ~4000 cells/well. The cells are allowed to attach overnight in a CO2 incubator. Next day, the medium was removed and replaced with fresh complete medium containing various concentrations of the test compounds. The final concentration of vehicle (DMSO) in the test medium was 0.1%. After adding test compounds, the cells were incubated for 72 hours. Following this period, the medium was removed and then added fresh medium (100 μl) containing CellTiter Aqueous (1× concentration final) to the wells and incubated for 2 hours in the CO2 incubator. At the end of incubation measured […] with a plate-reader. Controlled incubations with untreated cells and blank incubations containing only medium were included and tested similarly. Based on the cell viability assay the percentage inhibition of the cell proliferation was determined at the different concentrations of the drug tested.
Following the cell proliferation assay as indicated earlier, the percent cell proliferation inhibition was determined, and the assay results plotted to determine the IC50.

[2] = In vivo drug release from / drug remaining on implanted stents (HPLC); parameters: species or system porcine; conditions: 14 mm stents, day 7, n = 3
Protocol: The percentage and/or amount of each anticoagulant drug for or by each time point indicated were analyzed for each stent from the different devices in the example and the average drug tissue concentration reported.
Tissue concentrations and the amount of drug released from the stents were measured using stents implanted in porcine arteries for the drugs as indicated. The arteries at the designated time point were excised and a length of stented artery spanning from 5 mm proximal to the stented segment to 5 mm distal to the stented segment was cut. The stented artery was cut longitudinally with surgical scissors. The stents were separated from the tissue. The tissue content of each drug was analyzed using liquid chromatography mass spectroscopy (LCMS) and reported as a mean for each of the timepoint indicated. For drug remaining on each stent, each drug was extracted from the stent, measured using HPLC, and reported as a mean for each of the timepoint indicated as drug released or drug remaining on a stent (where drug remaining is equal to 100% minus the percentage of drug released).

[3] = test system: blood clotting (citrated sheep blood); assay: Net activated clotting time (net ACT) in citrated sheep blood (Examples 3-5); parameters: key: seconds; measured ACT minus blood control ACT (165 s); conditions: single drug, blood control 165 seconds
Protocol: The activated clotting time (ACT) evaluation of anticoagulants was performed in calcium citrate sheep blood and recorded employing the Hemochron® Response device. The ACT measurements were made in citrated sheep blood. 1.9 ml of citrated sheep blood was added to a test tube containing an activator (Hemochron@Celite@ ACT tubes, Lot F8FTE026 from Accriva Diagnostics, Inc.). A target amount of drug solution was then added into the test tube. The test tube was gently swirled so that the blood and drug were well-mixed. 0.1 ml of 0.3M calcium chloride was then added. The tube was gently shaken before being inserted into the Hemochron Response detector. The ACT read out was recorded and reported. The ACT of the control blood in the absence of any drug as first determined to establish a baseline. Here the blood control measured is 165 seconds. Then ACT was determined in the presence of different concentrations of the drug as a single component. In the following study, the net ACT (measured ACT minus blood control ACT) was utilized to visualize the synergistic effect of direct factor Xa inhibitor (Rivaroxaban) and direct factor IIa inhibitor (Argatroban) drug combinations. The figures are presented in ng/mg wherein the density of blood and tissue are approximately the same.
Example 4 is the continuation of example 3, which employed the same method as in example 3. The only difference is that the direct factor Xa inhibitor Edoxaban is used in place of direct factor Xa inhibitor Rivaroxaban.
Example 5 is the continuation of example 3, which employed the same method as in example 3. The only difference is that the direct factor Xa inhibitor Betrixaban is used in place of direct factor Xa inhibitor Rivaroxaban.

Factor IIa = conditions: cited from earlier work
porcine coronary artery = assay: In vivo porcine coronary stent implantation: fibrin score and late lumen loss (Examples 25-26); conditions: Table 9, day 7
Protocol: The drug eluting stent systems containing different anticoagulants prepared as described in Example 11 were evaluated at 3 hours, 6 hours, 1 day, 3 days, 6 days, 7 days, or 28 days following implantation in a porcine coronary artery model.
The porcine model was chosen as this model has been used extensively for stent and angioplasty studies resulting in a large volume of data on the vascular response properties and its correlation to human vascular response (Schwartz et al, Circulation. 2002; 106:1867 1873). The animals were housed and cared for in accordance with the Guide for the Care and Use of Laboratory Animals as established by the National Research Council.
After induction of anesthesia, the left or right femoral artery was accessed using standard techniques and an arterial sheath was introduced and advanced into the artery. Vessel angiography was performed under fluoroscopic guidance, a 7 Fr. guide catheter was inserted through the sheath and advanced to the appropriate location where intracoronary nitroglycerin was administered. An appropriate implantation segment of coronary artery was randomly selected and a 0.014″ guidewire inserted. Quantitative Coronary Angiography (QCA) was performed to document the results. The appropriately size stent was advanced to the deployment site. The balloon was inflated at a steady rate to a pressure sufficient to achieve a balloon to artery ratio of approximately 1.1 to 1.0.
Follow up angiography was performed at the designated timepoint for each of the animals. Late lumen loss (LLL) can be expressed as: […]
The LLL is an indicator of the amount smooth muscle cell (SMC) proliferation or inhibition. It is used to measure efficacy between drugs for SMC proliferation inhibition. The smaller the LLL, the better the efficacy of the drug.
Stented portions of coronary arteries were embedded in methyl methacrylate (MMA), then divided into a target of at least three blocks of approximately similar lengths for histology evaluation. Quantitative histopathological evaluation of stented artery sections was then performed and scored as indicated. For Fibrin formation, scores ranged from 0 to 3, with a score of 0 indicating absent or rare minimal spotting around struts of the stent, a score of 1 indicating the presence of fibrin in small amounts localized only around the struts, a score of 2 indicating the moderately abundant or denser presence of fibrin around and extending beyond the struts, and a score of 3 indicating the presence of abundant and dense fibrin and/or bridging of the fibrin between the struts. The mean score was calculated and reported. The mean of each section was then averaged to provide a mean fibrin score per stent. The smaller the fibrin score, the better efficacy.

[4] = test system: blood clotting (citrated sheep blood); assay: Activated clotting time (ACT) in citrated sheep blood (Example 2); conditions: single drug, 0.6 ng/mg
Protocol: The activated clotting time (ACT) evaluation of anticoagulants was performed in calcium citrate sheep blood and recorded employing the Hemochron® Response device.
The ACT measurements were made in citrated sheep blood. 1.9 ml of citrated sheep blood was added to a test tube containing an activator (Hemochron@Celite@ ACT tubes, Lot F8FTE026 from Accriva Diagnostics, Inc.). A target amount of drug solution was then added into the test tube. The test tube was gently swirled so that the blood and drug was well-mixed. 0.1 ml of 0.3M calcium chloride was then added. The tube was gently shaken before being inserted into the Hemochron Response detector. The ACT read out was recorded and reported. The ACT of the control blood in the absence of any drug as first determined to establish a baseline. Then ACT was determined in the presence of different concentrations of the drug as a single component. Selected drug combinations were then tested to evaluate for potential synergy in action between the two drugs.

[5] = test system: platelets (Tissue factor generated antiplatelet); conditions: cited from earlier work
[6] = test system: blood clotting (heparinized sheep blood); assay: Net ACT initiated by platelet activation factor (PAF) and CaCl2 in heparinized sheep blood (Examples 6-11); conditions: single drug, 0.05 ng/mg; PAF & CaCl2; blood control 235 seconds
Protocol: In order to examine the potential synergistic effects between anti-inflammatory agents, direct factor Xa inhibitors, direct factor IIa inhibitors, antiplatelets (P2Y12 inhibitor and glycoprotein IIb/IIIa inhibitor, platelet activation factor and CaCl2 were utilized by measuring ACT. Heparinized sheep blood was used to preserve platelet function.
The activated clotting time (ACT) evaluation initiated by platelet activation factor (PAF) and calcium chloride (CaCl2) was performed in heparinized sheep blood and recorded employing the Hemochron® Response device. […] A target amount of drug solution was then added into the test tube. The test tube was gently swirled so that the blood and drug were well-mixed. […] The tube was gently shaken before being inserted into the Hemochron Response detector. The ACT read out was recorded and reported. The ACT of the control heparinized sheep blood in the absence of any drug as first measured to establish a baseline. […] Then ACT was measured in the presence of different concentrations of the drug measured. Selected drug combinations were then tested to evaluate for potential synergy in action between the drug combination. The net ACT (ACT minus blood control ACT) was utilized to visualize the synergistic effect. […] The figures are presented in ng/mg wherein the density of blood and tissue are approximately the same.

CC1CNc2c(cccc2S(=O)(=O)N[C@@H](CCCNC(=N)N)C(=O)N2CC[C@@H](C)C[C@@H]2C(=O)O)C1 (stereo partly drawn) [Argatroban]
HAoSMC proliferation inhibition [1]: small to no inhibition
Cumulative Percent Release of drug by day 7: Argatroban [2]: at least 96.9%
net ACT ([3]; 0.15 ng/mg): 42 and 46
net ACT ([3]; 0.3 ng/mg): 54
IC50 for Anti-Factor IIa (Factor IIa): 0.0107 ng/mg
IC50 (Factor IIa; read-out: IC50 for Anti-Factor IIa): 21 nM
LLL / smooth muscle cell proliferation compared to bare metal control stents (porcine coronary artery): larger LLLs compared to control
inhibition of fibrin formation compared to bare metal control stents (porcine coronary artery): not effective at inhibiting fibrin formation
ACT [4]: 301
IC50 [5]: 79 nM
IC50 for Tissue factor generated antiplatelet [5]: 0.04 ng/mg
net ACT [6]: 56 s
